Test results published in patent publication US8192717B2, “Composition for diagnosing amyloid-related diseases” (Nagasaki University, priority 2004, dated 2012).

Experiment: Radioactivity distribution in mouse body after intravenous administration of radioiodine labeled forms
Details: mouse, intravenous administration, mean (SD) of 3 to 5 mice
Method: Thereafter, 100 μl (0.5 to 1 μCi) of each labeled form was intravenously administered to each group consisting of three to five 5-week-old ddY male mice (25 to 30 g). 2, 10, 30, and 60 minutes after the intravenous administration, such mice were decapitated, and blood was collected. Thereafter, organs were excised, and the weight and radioactivity thereof were then measured.

Row | SMILES | Distribution of radioactivity, Blood (2 min after administration) | Distribution of radioactivity, Blood (10 min after administration) | Distribution of radioactivity, Blood (30 min after administration) | Distribution of radioactivity, Blood (60 min after administration) | Distribution of radioactivity, Brain (2 min after administration) | Distribution of radioactivity, Brain (10 min after administration) | Distribution of radioactivity, Brain (30 min after administration) | Distribution of radioactivity, Brain (60 min after administration) | Distribution of radioactivity, Heart (2 min after administration) | Distribution of radioactivity, Heart (10 min after administration) | Distribution of radioactivity, Heart (30 min after administration) | Distribution of radioactivity, Heart (60 min after administration) | Distribution of radioactivity, Intestine (2 min after administration) | Distribution of radioactivity, Intestine (10 min after administration) | Distribution of radioactivity, Intestine (30 min after administration) | Distribution of radioactivity, Intestine (60 min after administration) | Distribution of radioactivity, Kidney (2 min after administration) | Distribution of radioactivity, Kidney (10 min after administration) | Distribution of radioactivity, Kidney (30 min after administration) | Distribution of radioactivity, Kidney (60 min after administration) | further results
1 | CNc1ccc(C=Cc2cc(=O)c3cc([125I])ccc3o2)cc1 [[125I]Compound 47] | 3.21 (0.38) % ID/g | 2.44 (0.082) % ID/g | 2.19 (0.29) % ID/g | 1.79 (0.23) % ID/g | 2.84 (0.35) % ID/g | 2.96 (0.25) % ID/g | 1.86 (0.30) % ID/g | 0.99 (0.09) % ID/g | 6.92 (1.41) % ID/g | 3.31 (0.69) % ID/g | 2.09 (0.39) % ID/g | 1.47 (0.27) % ID/g | 2.59 (0.38) % ID/g | 8.55 (1.21) % ID/g | 16.72 (2.58) % ID/g | 19.16 (2.63) % ID/g | 10.41 (1.33) % ID/g | 7.05 (0.56) % ID/g | 5.48 (0.97) % ID/g | 3.52 (1.36) % ID/g | Distribution of radioactivity, Liver (2 min after administration): 14.55 (2.64) % ID/g; Distribution of radioactivity, Liver (10 min after administration): 14.41 (2.52) % ID/g; Distribution of radioactivity, Liver (30 min after administration): 11.13 (1.63) % ID/g; Distribution of radioactivity, Liver (60 min after administration): 7.82 (0.94) % ID/g; Distribution of radioactivity, Spleen (2 min after administration): 3.88 (0.74) % ID/g; Distribution of radioactivity, Spleen (10 min after administration): 4.42 (1.05) % ID/g; Distribution of radioactivity, Spleen (30 min after administration): 2.66 (0.47) % ID/g; Distribution of radioactivity, Spleen (60 min after administration): 1.51 (0.19) % ID/g
2 | CN(C)c1ccc(C=Cc2cc(=O)c3cc([125I])ccc3o2)cc1 [[125I]Compound 48] | 14.54 (3.37) % ID/g | 3.50 (1.13) % ID/g | 1.5 (0.22) % ID/g | 0.80 (0.21) % ID/g | 0.70 (0.10) % ID/g | 0.72 (0.14) % ID/g | 1.02 (0.23) % ID/g | 0.77 (0.25) % ID/g | 8.89 (1.94) % ID/g | 4.00 (0.93) % ID/g | 2.36 (0.51) % ID/g | 1.42 (0.38) % ID/g | 1.52 (0.09) % ID/g | 4.8 (0.74) % ID/g | 11.98 (1.26) % ID/g | 14.91 (4.18) % ID/g | 9.04 (1.72) % ID/g | 5.58 (1.07) % ID/g | 5.16 (1.06) % ID/g | 3.94 (1.25) % ID/g | Distribution of radioactivity, Liver (2 min after administration): 20.56 (3.98) % ID/g; Distribution of radioactivity, Liver (10 min after administration): 15.09 (2.63) % ID/g; Distribution of radioactivity, Liver (30 min after administration): 12.82 (1.96) % ID/g; Distribution of radioactivity, Liver (60 min after administration): 8.79 (1.80) % ID/g; Distribution of radioactivity, Spleen (2 min after administration): 5.09 (0.75) % ID/g; Distribution of radioactivity, Spleen (10 min after administration): 4.06 (0.66) % ID/g; Distribution of radioactivity, Spleen (30 min after administration): 3.15 (0.70) % ID/g; Distribution of radioactivity, Spleen (60 min after administration): 2.82 (0.36) % ID/g
